Laboratory results as given in US20220073496A1, “NOVEL QUINOLINE DERIVATIVE INHIBITOR” (Nanjing Transthera Biosciences Co., Ltd., priority 2018, published 2022).

Target: T1, H1299 cell pAxl (Homo sapiens, UniProt P30530)
T1 construct: endogenous in cells; host or cells: H1299
T1 sequence (P30530 26-894): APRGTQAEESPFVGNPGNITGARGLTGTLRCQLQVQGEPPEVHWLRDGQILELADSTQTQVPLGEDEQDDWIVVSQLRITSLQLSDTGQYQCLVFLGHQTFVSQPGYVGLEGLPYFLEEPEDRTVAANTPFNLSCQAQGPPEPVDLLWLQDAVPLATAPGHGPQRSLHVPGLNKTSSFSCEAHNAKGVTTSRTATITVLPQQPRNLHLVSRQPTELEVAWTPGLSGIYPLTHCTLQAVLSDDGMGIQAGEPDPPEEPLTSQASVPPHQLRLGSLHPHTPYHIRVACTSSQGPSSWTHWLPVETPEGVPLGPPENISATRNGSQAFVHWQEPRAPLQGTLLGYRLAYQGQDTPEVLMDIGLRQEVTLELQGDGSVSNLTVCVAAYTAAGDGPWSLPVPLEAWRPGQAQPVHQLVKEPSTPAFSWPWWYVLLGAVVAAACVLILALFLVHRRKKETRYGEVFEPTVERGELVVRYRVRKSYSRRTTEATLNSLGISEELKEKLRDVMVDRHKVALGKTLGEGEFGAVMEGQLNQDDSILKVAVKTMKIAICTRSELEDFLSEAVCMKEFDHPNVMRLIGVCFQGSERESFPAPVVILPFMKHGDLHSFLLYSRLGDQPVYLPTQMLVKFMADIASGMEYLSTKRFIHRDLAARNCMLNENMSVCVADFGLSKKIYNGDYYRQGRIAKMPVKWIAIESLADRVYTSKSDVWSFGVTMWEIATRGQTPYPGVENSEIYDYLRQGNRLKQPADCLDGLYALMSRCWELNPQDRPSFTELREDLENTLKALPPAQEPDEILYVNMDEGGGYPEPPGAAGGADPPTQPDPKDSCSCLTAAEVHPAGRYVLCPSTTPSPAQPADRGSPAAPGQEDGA
Experiment: Inhibitory activity on the cell pAxl (Western Blot)
Format: cell-based
Details: H1299 cells, compound 1.1, 3.3, 10, 30 nM, hGAS6 200 ng/mL
Method: Assay 5: Test for Inhibitory Activities of the Compounds of the Present Invention on the Cell pAxl
H1299 is a non-small cell lung cancer cell.
Test substances: the compounds of the present invention, wherein the structures thereof were as described above.
Test equipment: protein electrophoresis apparatus (manufactured by Bio Rad), transfer unit (manufactured by Bio Rad), exposure unit (manufactured by Tanon), CO2, cell incubator (manufactured by Thermo).
The H1299 cells were inoculated in a 6-well plate (containing 10% FBS 1640 medium, 5×10^5 cells per well), and adherent cells were cultivated at 37° C. in a 5% CO2 condition for 18 hours. The cells were starved overnight. Different concentrations of compounds were added. The final compound concentrations were 1.1, 3.3, 10, and 30 nM, and the final DMSO content was 1‰. The negative control wells contained the medium containing 1‰ DMSO. After incubating at 37° C. in a 5% CO2 condition for 60 minutes, hGAS6 (R&D, final concentration 200 ng/mL) was added to each well. After further incubating for 60 minutes, the cell total protein was extracted for Western Blot and the […] values were calculated using GraphPad 5.0 software. The inhibitory activity of the compound on the cell pAxl was examined.

| Structure (SMILES) | IC50 |
| --- | --- |
| COc1cc2nccc(Oc3ccc(NC(=O)c4nn(C5CC5)cc(-c5ccc(C)cc5)c4=O)nc3)c2cc1OC [Compound 46, 1-cyclopropyl-N-(5-((6,7-dimethoxyquinolin-4-yl)oxy)pyridin-2-yl)-4-oxo-5-p-tolyl-1,4-dihydropyridazine-3-carboxamide] | < 1.1 nM |
| COc1cc2nccc(Oc3ccc(NC(=O)c4cn(C5CC5)nc(-c5ccc(F)cc5)c4=O)nc3)c2cc1OC [Compound 42, 2-cyclopropyl-N-(5--((6,7-dimethoxyquinolin-4-yl)oxy)pyridin-2-yl)-6-(4-fluorophenyl)-5-oxo-2,5-dihydropyridazine-4-carboxamide] | 1.1 to 3.3 nM |
| COc1cc2nccc(Oc3cnc(NC(=O)c4cn(C5CC5)nc(-c5ccc(F)cc5)c4=O)nc3)c2cc1OC [Compound 45, 2-cyclopropyl-N-(5-((6,7-dimethoxyquinolin-4-yl)oxy)pyrimidine-2-yl)-6-(4-fluorophenyl)-5-oxo-2,5-dihydropyridazine-4-carboxamide] | 1.1 nM |
| COc1cc2nccc(Oc3ccc(NC(=O)c4cn(C5CC5)nc(-c5ccc(F)cc5)c4=O)cn3)c2cc1OC [Compound 43, 2-cyclopropyl-N-(6-((6,7-dimethoxyquinolin-4-yl)oxy)pyridin-3-yl)-6-para-fluorophenyl-5-oxo-2,5-dihydropyridazine-4-carboxamide] | 3.3 nM |
| COc1cc2nccc(Oc3cnc(NC(=O)c4cn(C(C)C)cc(-c5ccc(F)cc5)c4=O)nc3)c2cc1OC [Compound 20, N-(5-((6,7-dimethoxyquinolin-4-y)oxy)pyrimidine-2-yl)-5-(4-fluorophenyl)-1-isopropyl-4-oxo-1,4-dihydropyridin-3-carboxamide] | < 1.1 nM |
